Measurements reported in patent US20240226228A1, “ANTIMICROBIAL PEPTOID HAVING IMPROVED SELECTIVITY AND ANTIMICROBIAL COMPOSITION COMPRISING SAME” (priority 2021, published 2024).
Converted amounts (≈) assume the structure as drawn. Where a SMILES comes first, the peptide text is derived from it. [ ]: non-standard residue; d: D form. Gly(N(CH2)2(3-indolyl)) = O=C(O)CNCCc1c[nH]c2ccccc12; Gly(N-CH2CH2-imidazol-4-yl) = O=C(O)CNCCc1c[nH]cn1; Nspe = C[C@H](NCC(=O)O)c1ccccc1; Nlys = NCCCCNCC(=O)O

Legend:
E. coli ATCC25922 = details: for antimicrobial activity against E. coli (in words): compared to Peptoid 1; for antimicrobial activity (in words): E. coli and S. aureus, compared to Peptoid 1, parent peptoid or TFA salt as stated
Protocol: To measure the antimicrobial activity of the peptoids synthesized in Example 1, an E. coli ATCC25922 strain as gram-negative bacteria and an S. aureus KCTC25923 strain as gram-positive bacteris, were treated with the peptoids, followed by measuring the minimum inhibitory concentration (MIC). Peptoids 1 and 2 are antimicrobial peptoids known in the art, and used as controls for comparing antimicrobial activity with a novel peptoid.
Specifically, the S. aureus KCTC25923 or E. coli ATCC25922 strain was inoculated into a Mueller Hinton Broth (MHB2) liquid medium in which cations had been adjusted in the medium, cultured at 37° C. for 18 hours, subcultured, and then incubated for 4 hours. Afterward, for each bacterial strain, an optical density (OD, 0.001) was adjusted so that the bacterial count became 2×10^5 to 5×10^5 colony-forming units (CFU) per mL, which was then diluted with a MHB2 liquid medium containing 0.02% bovine serum albumin and 0.001% acetic acid, and dispensed at 100 μL into a 96-well microplate. Using sterile water, a peptoid stock 40 times stronger than a concentration to be tested was subjected to two-fold serial dilution and assessed at six different concentrations, and the maximum value of the peptoid concentrations was 25 μM. Subsequently, the plate was incubated at 37° C. for 24 hours. Afterward, optical density (OD) values at 600 nm were measured using a microplate reader (Bio-Rad).
Each MIC value was determined as the average value of a value obtained through three independent experiments.
Referring to Table 22, to measure the antimicrobial activity of the peptoids synthesized in Example 3, an MIC was measured by treating gram-negative bacteria, that is, the E. coli ATCC25922 strain, and gram-positive bacteria, that is, the S. aureus ATCC25923 strain, with the peptoids. Here, Peptoid 1 is a conventionally known antimicrobial peptoid, and Omiganan is a derivative of indolicidin, which is an antimicrobial peptide, under clinical development, and was used as a control for comparing antimicrobial activity with the novel peptoid.

red blood cells = test: Hemolysis assay; format: cell-based, Sprague-Dawley mouse
Protocol: To confirm cytotoxicity by the hemolytic activity of each peptoid synthesized in Example 1, hemolysis analysis was performed. The used blood was collected from a 13-week-old male Sprague-Dawley […] in a tube containing 158 UPS sodium heparin for preventing coagulation, and centrifuged at 4° C. for 10 minutes at 1,000 rpm. Afterward, the plasma was carefully removed, red blood cells were washed with phosphate-buffered saline (PBS: a mixed solution of 35 mM phosphate-buffered solution/150 mM NaCl, pH 7.4) three times and centrifuged at 1,000 rpm for 10 minutes. A 10% (v/v) red blood cell solution diluted in PBS was dispensed at 150 μL into a 96-well plate (microtiter plate), a peptoid solution was added at 50 μL, and 1% Triton X-100 was added. Afterward, the red blood cells were incubated at 37° C. for 1 hour, and the incubated 96-well plate was centrifuged at 1,000 rpm for 15 minutes. A supernatant was obtained and transferred to a new 96-well plate at 150 μL, and absorbance was measured using a spectrophotometer at 540 nm. Percent hemolysis may be calculated by the following Equation 1, and the corresponding results are shown in Tables 11 to 13. % Hemolysis=(A−C)/(B−C)×100 [Equation 1] In Equation 1, A is the absorbance of the peptoid solution at 540 nm, B is the absorbance of the 0.1% Triton X-100 at 540 nm, and C is the absorbance of the PBS solution at 540 nm.

Structure (SMILES) | antimicrobial activity (in words) (E. coli ATCC25922) | cytotoxicity against red blood cells / hemolysis (in words) (red blood cells) | also measured
C[C@@H](c1ccccc1)N(CC(=O)N(CCCCN)CC(=O)N(CC(=O)N(CC(=O)N(CCCCN)CC(=O)N(CC(=O)N(CC(=O)N(CCCCN)CC(=O)N(CC(=O)N(CC(=O)N(CCc1c[nH]c2ccccc12)CC(N)=O)[C@@H](C)c1ccccc1)[C@@H](C)c1ccccc1)[C@@H](C)c1ccccc1)[C@@H](C)c1ccccc1)[C@@H](C)c1ccccc1)[C@@H](C)c1ccccc1)C(=O)CN(C(=O)CN(CCCCN)C(=O)CNCCc1c[nH]c2ccccc12)[C@@H](C)c1ccccc1 [Peptoid 5, H-NhTrp-NLys-Nspe-Nspe-NLys-Nspe-Nspe-NLys-Nspe-Nspe-NLys-Nspe-Nspe-NhTrp-NH2] (H-[Gly(N(CH2)2(3-indolyl))][Nlys][Nspe][Nspe][Nlys][Nspe][Nspe][Nlys][Nspe][Nspe][Nlys][Nspe][Nspe][Gly(N(CH2)2(3-indolyl))]-NH2) | – | – | antimicrobial activity against E. coli (in words) (E. coli ATCC25922): lost antimicrobial activities against E. coli
C[C@@H](c1ccccc1)N(CC(N)=O)C(=O)CN(C(=O)CN(CCCCN)C(=O)CN(C(=O)CN(C(=O)CN(CCCCN)C(=O)CN(C(=O)CN(C(=O)CN(CCCCN)C(=O)CN(C(=O)CN(C(=O)CN(CCCCN)C(=O)CN(CCc1c[nH]c2ccccc12)C(=O)CNCCc1c[nH]c2ccccc12)[C@@H](C)c1ccccc1)[C@@H](C)c1ccccc1)[C@@H](C)c1ccccc1)[C@@H](C)c1ccccc1)[C@@H](C)c1ccccc1)[C@@H](C)c1ccccc1)[C@@H](C)c1ccccc1 [Peptoid 6, H-NhTrp-NhTrp-NLys-Nspe-Nspe-NLys-Nspe-Nspe-NLys-Nspe-Nspe-NLys-Nspe-Nspe-NH2] | – | – | antimicrobial activity against E. coli (in words) (E. coli ATCC25922): lost antimicrobial activities against E. coli
C[C@@H](c1ccccc1)N(CC(=O)N(CCCCN)CC(=O)N(CC(=O)N(CC(=O)N(CCCCN)CC(=O)N(CCc1c[nH]c2ccccc12)CC(=O)N(CCc1c[nH]c2ccccc12)CC(=O)N(CCCCN)CC(=O)N(CCc1c[nH]c2ccccc12)CC(=O)N(CCc1c[nH]c2ccccc12)CC(N)=O)[C@@H](C)c1ccccc1)[C@@H](C)c1ccccc1)C(=O)CN(C(=O)CNCCCCN)[C@@H](C)c1ccccc1 [Peptoid 19] (H-[Nlys][Nspe][Nspe][Nlys][Nspe][Nspe][Nlys][Gly(N(CH2)2(3-indolyl))][Gly(N(CH2)2(3-indolyl))][Nlys][Gly(N(CH2)2(3-indolyl))][Gly(N(CH2)2(3-indolyl))]-NH2) | – | – | MIC E. coli ATCC25922 (E. coli ATCC25922; Tables 11-13, 24 hours at 37° C., maximum concentration 25 μM): 12.5 µM (≈ 24.7 µg/mL); Hmax (100 μM) (red blood cells): 101.5 ± 1.3%; HC10 (red blood cells; Tables 11-13, concentration that induces hemolysis in 10% red blood cells): 3.8 µM; HC50 (red blood cells; Tables 11-13, concentration that induces hemolysis in 50% red blood cells): 12.5 µM
C[C@@H](c1ccccc1)N(CC(N)=O)C(=O)CN(CCCCN)C(=O)CN(CCCCN)C(=O)CN(C(=O)CN(C(=O)CN(CCCCN)C(=O)CN(C(=O)CN(C(=O)CN(CCCCN)C(=O)CN(CCc1c[nH]c2ccccc12)C(=O)CN(CCc1c[nH]c2ccccc12)C(=O)CNCCc1c[nH]cn1)[C@@H](C)c1ccccc1)[C@@H](C)c1ccccc1)[C@@H](C)c1ccccc1)[C@@H](C)c1ccccc1 [Peptoid 72, H-NHis-NhTrp-NhTrp-NLys-Nspe-Nspe-NLys-Nspe-Nspe-NLys-NLys-Nspe-NH2] (H-[Gly(N-CH2CH2-imidazol-4-yl)][Gly(N(CH2)2(3-indolyl))][Gly(N(CH2)2(3-indolyl))][Nlys][Nspe][Nspe][Nlys][Nspe][Nspe][Nlys][Nlys][Nspe]-NH2) | retained antimicrobial activity | improved in toxicity | –
C[C@@H](c1ccccc1)N(CC(N)=O)C(=O)CN(CCCCN)C(=O)CN(CCCCN)C(=O)CN(C(=O)CN(C(=O)CN(CCCCN)C(=O)CN(C(=O)CN(C(=O)CN(CCc1c[nH]cn1)C(=O)CN(CCc1c[nH]c2ccccc12)C(=O)CN(CCc1c[nH]c2ccccc12)C(=O)CNCCCCN)[C@@H](C)c1ccccc1)[C@@H](C)c1ccccc1)[C@@H](C)c1ccccc1)[C@@H](C)c1ccccc1 [Peptoid 73, H-NLys-NhTrp-NhTrp-NHis-Nspe-Nspe-NLys-Nspe-Nspe-NLys-NLys-Nspe-NH2] (H-[Nlys][Gly(N(CH2)2(3-indolyl))][Gly(N(CH2)2(3-indolyl))][Gly(N-CH2CH2-imidazol-4-yl)][Nspe][Nspe][Nlys][Nspe][Nspe][Nlys][Nlys][Nspe]-NH2) | retained antimicrobial activity | improved in toxicity | –
C[C@@H](c1ccccc1)N(CC(N)=O)C(=O)CN(CCCCN)C(=O)CN(CCCCN)C(=O)CN(C(=O)CN(C(=O)CN(CCc1c[nH]cn1)C(=O)CN(C(=O)CN(C(=O)CN(CCCCN)C(=O)CN(CCc1c[nH]c2ccccc12)C(=O)CN(CCc1c[nH]c2ccccc12)C(=O)CNCCCCN)[C@@H](C)c1ccccc1)[C@@H](C)c1ccccc1)[C@@H](C)c1ccccc1)[C@@H](C)c1ccccc1 [Peptoid 74, H-NLys-NhTrp-NhTrp-NLys-Nspe-Nspe-NHis-Nspe-Nspe-NLys-NLys-Nspe-NH2] (H-[Nlys][Gly(N(CH2)2(3-indolyl))][Gly(N(CH2)2(3-indolyl))][Nlys][Nspe][Nspe][Gly(N-CH2CH2-imidazol-4-yl)][Nspe][Nspe][Nlys][Nlys][Nspe]-NH2) | retained antimicrobial activity | improved in toxicity | –
C[C@@H](c1ccccc1)N(CC(N)=O)C(=O)CN(CCc1c[nH]cn1)C(=O)CN(CCCCN)C(=O)CN(C(=O)CN(C(=O)CN(CCCCN)C(=O)CN(C(=O)CN(C(=O)CN(CCCCN)C(=O)CN(CCc1c[nH]c2ccccc12)C(=O)CN(CCc1c[nH]c2ccccc12)C(=O)CNCCCCN)[C@@H](C)c1ccccc1)[C@@H](C)c1ccccc1)[C@@H](C)c1ccccc1)[C@@H](C)c1ccccc1 [Peptoid 76, H-NLys-NhTrp-NhTrp-NLys-Nspe-Nspe-NLys-Nspe-Nspe-NLys-NHis-Nspe-NH2] (H-[Nlys][Gly(N(CH2)2(3-indolyl))][Gly(N(CH2)2(3-indolyl))][Nlys][Nspe][Nspe][Nlys][Nspe][Nspe][Nlys][Gly(N-CH2CH2-imidazol-4-yl)][Nspe]-NH2) | retained antimicrobial activity | improved in toxicity | –
C[C@@H](c1ccccc1)N(CC(=O)N(CCc1c[nH]cn1)CC(=O)N(CCc1c[nH]c2ccccc12)CC(=O)N(CCc1c[nH]c2ccccc12)CC(N)=O)C(=O)CN(CCCCN)C(=O)CN(CCCCN)C(=O)CN(C(=O)CN(C(=O)CN(CCCCN)C(=O)CN(C(=O)CN(C(=O)CNCCCCN)[C@@H](C)c1ccccc1)[C@@H](C)c1ccccc1)[C@@H](C)c1ccccc1)[C@@H](C)c1ccccc1 [Peptoid 77, H-NLys-Nspe-Nspe-NLys-Nspe-Nspe-NLys-NLys-Nspe-NHis-NhTrp-NhTrp-NH2] (H-[Nlys][Nspe][Nspe][Nlys][Nspe][Nspe][Nlys][Nlys][Nspe][Gly(N-CH2CH2-imidazol-4-yl)][Gly(N(CH2)2(3-indolyl))][Gly(N(CH2)2(3-indolyl))]-NH2) | reduced antimicrobial activity | improved toxicity | –
C[C@@H](c1ccccc1)N(CC(=O)N(CCCCN)CC(=O)N(CCc1c[nH]c2ccccc12)CC(=O)N(CCc1c[nH]c2ccccc12)CC(N)=O)C(=O)CN(CCc1c[nH]cn1)C(=O)CN(CCCCN)C(=O)CN(C(=O)CN(C(=O)CN(CCCCN)C(=O)CN(C(=O)CN(C(=O)CNCCCCN)[C@@H](C)c1ccccc1)[C@@H](C)c1ccccc1)[C@@H](C)c1ccccc1)[C@@H](C)c1ccccc1 [Peptoid 78, H-NLys-Nspe-Nspe-NLys-Nspe-Nspe-NLys-NHis-Nspe-NLys-NhTrp-NhTrp-NH2] (H-[Nlys][Nspe][Nspe][Nlys][Nspe][Nspe][Nlys][Gly(N-CH2CH2-imidazol-4-yl)][Nspe][Nlys][Gly(N(CH2)2(3-indolyl))][Gly(N(CH2)2(3-indolyl))]-NH2) | retained antimicrobial activity | improved in toxicity | –
